From PubChem BioAssay (NCI)
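Method: 48-hour compound exposure of cells in 96-well plates, five concentrations, linear interpolation of endpoints. At the TGI there is no net growth.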

Assays:
Experiment in all cases: inhibition of tumour cell growth, NCI panel, 48 h
NCI-H460 lung = test system: NCI-H460 lung
IGROV1 ovarian = test system: IGROV1 ovarian
RXF 393 renal = test system: RXF 393 renal
SK-MEL-5 melanoma = test system: SK-MEL-5 melanoma
NCI-H522 lung = test system: NCI-H522 lung
UACC-257 melanoma = test system: UACC-257 melanoma
A549 NSCLC = test system: A549 NSCLC
EKVX NSCLC = test system: EKVX NSCLC
OVCAR-8 ovarian = test system: OVCAR-8 ovarian
OVCAR-5 ovarian = test system: OVCAR-5 ovarian
MALME-3M melanoma = test system: MALME-3M melanoma
HCT-15 colon = test system: HCT-15 colon
RPMI-8226 leukemia = test system: RPMI-8226 leukemia
UO-31 renal = test system: UO-31 renal
DU-145 prostate = test system: DU-145 prostate
SW-620 colon = test system: SW-620 colon
CCRF-CEM leukemia = test system: CCRF-CEM leukemia
K-562 leukemia = test system: K-562 leukemia
SK-MEL-2 melanoma = test system: SK-MEL-2 melanoma
BT-549 breast = test system: BT-549 breast
T-47D breast = test system: T-47D breast
UACC-62 melanoma = test system: UACC-62 melanoma
SF-295 CNS = test system: SF-295 CNS
SK-OV-3 ovarian = test system: SK-OV-3 ovarian
SK-MEL-28 melanoma = test system: SK-MEL-28 melanoma
PC-3 prostate = test system: PC-3 prostate
SN12C renal = test system: SN12C renal
M14 melanoma = test system: M14 melanoma
OVCAR-3 ovarian = test system: OVCAR-3 ovarian
MOLT-4 leukemia = test system: MOLT-4 leukemia
HCC-2998 colon = test system: HCC-2998 colon
TK-10 renal = test system: TK-10 renal
MDA-N = test system: MDA-N
HCT-116 colon = test system: HCT-116 colon
OVCAR-4 ovarian = test system: OVCAR-4 ovarian
NCI-H23 lung = test system: NCI-H23 lung
MCF7 breast = test system: MCF7 breast
U251 CNS = test system: U251 CNS
NCI-H226 lung = test system: NCI-H226 lung
A498 renal = test system: A498 renal
ACHN renal = test system: ACHN renal
HOP-92 NSCLC = test system: HOP-92 NSCLC
NCI/ADR-RES ovarian = test system: NCI/ADR-RES ovarian
HL-60(TB) leukemia = test system: HL-60(TB) leukemia
KM12 colon = test system: KM12 colon
SF-268 CNS = test system: SF-268 CNS
MDA-MB-435 = test system: MDA-MB-435
SR leukemia = test system: SR leukemia
MDA-MB-231 breast = test system: MDA-MB-231 breast
HOP-62 NSCLC = test system: HOP-62 NSCLC
CAKI-1 renal = test system: CAKI-1 renal
LOX IMVI melanoma = test system: LOX IMVI melanoma
HS 578T breast = test system: HS 578T breast
COLO 205 colon = test system: COLO 205 colon
SNB-19 CNS = test system: SNB-19 CNS
786-0 renal = test system: 786-0 renal
SF-539 CNS = test system: SF-539 CNS
HT29 colon = test system: HT29 colon
SNB-75 CNS = test system: SNB-75 CNS

`CCCOc1cc2c(cc1O)CC[C@@H]1[C@@H]2CC[C@]2(C)[C@@H](O)CC[C@@H]12` gave a TGI (NCI-H460 lung) of 26.5 µM, a TGI (IGROV1 ovarian) of over 100 µM and a TGI (RXF 393 renal) of 10.4 µM. For the same compound, the TGI (SK-MEL-5 melanoma) was 12.1 µM, the TGI (NCI-H522 lung) was 3.52 µM and the TGI (UACC-257 melanoma) was over 58.7 µM. It also gave a TGI (A549 NSCLC) of over 56.3 µM, a TGI (EKVX NSCLC) of over 57.7 µM and a TGI (OVCAR-8 ovarian) of over 59.1 µM. For the same compound, the TGI (OVCAR-5 ovarian) was over 65.4 µM, the TGI (MALME-3M melanoma) was over 100 µM and the TGI (HCT-15 colon) was over 35.3 µM. The TGI (RPMI-8226 leukemia) was 23.7 µM, the TGI (UO-31 renal) was over 57.2 µM and the TGI (DU-145 prostate) was 27.2 µM. The TGI (SW-620 colon) was over 35.5 µM, the TGI (CCRF-CEM leukemia) was over 37.4 µM and the TGI (K-562 leukemia) was 5.33 µM. It also gave a TGI (SK-MEL-2 melanoma) of 11.3 µM, a TGI (BT-549 breast) of 20.1 µM and a TGI (T-47D breast) of over 45 µM. The TGI (UACC-62 melanoma) was 30.8 µM, the TGI (SF-295 CNS) was 14.7 µM and the TGI (SK-OV-3 ovarian) was 50.5 µM. It also gave a TGI (SK-MEL-28 melanoma) of over 50.4 µM, a TGI (PC-3 prostate) of over 51.6 µM and a TGI (SN12C renal) of 37.8 µM. It also gave a TGI (M14 melanoma) of 36.8 µM, a TGI (OVCAR-3 ovarian) of over 46.2 µM and a TGI (MOLT-4 leukemia) of 14.2 µM. For the same compound, the TGI (HCC-2998 colon) was 17.6 µM, the TGI (TK-10 renal) was 54.7 µM and the TGI (MDA-N) was 2.14 µM. For the same compound, the TGI (HCT-116 colon) was 42 µM, the TGI (OVCAR-4 ovarian) was over 65.5 µM and the TGI (NCI-H23 lung) was over 55.5 µM. The TGI (MCF7 breast) was 37.2 µM, the TGI (U251 CNS) was 34.2 µM and the TGI (NCI-H226 lung) was 55 µM. It also gave a TGI (A498 renal) of 20.7 µM, a TGI (ACHN renal) of over 56.2 µM and a TGI (HOP-92 NSCLC) of over 60.4 µM. It also gave a TGI (NCI/ADR-RES ovarian) of 39 µM, a TGI (HL-60(TB) leukemia) of 18.9 µM and a TGI (KM12 colon) of over 55.5 µM. The TGI (SF-268 CNS) was over 59.7 µM, the TGI (MDA-MB-435) was 5.91 µM and the TGI (SR leukemia) was 16.7 µM. It also gave a TGI (MDA-MB-231 breast) of 27.7 µM, a TGI (HOP-62 NSCLC) of 14.1 µM and a TGI (CAKI-1 renal) of 23.5 µM. For the same compound, the TGI (LOX IMVI melanoma) was 34.5 µM, the TGI (HS 578T breast) was 11.3 µM and the TGI (COLO 205 colon) was 30 µM. It also gave a TGI (SNB-19 CNS) of over 100 µM, a TGI (786-0 renal) of 30.5 µM and a TGI (SF-539 CNS) of 4.44 µM. For the same compound, the TGI (HT29 colon) was 25.9 µM and the TGI (SNB-75 CNS) was 32.4 µM.

Compound `C[C@]12CC[C@H](O)C[C@@H]1CC[C@@H]1[C@@H]2CC[C@]2(C)[C@@H](c3cc(C(F)(F)F)n[nH]3)CC[C@@H]12` has a TGI (NCI-H460 lung) of 15.3 µM, a TGI (IGROV1 ovarian) of 19.8 µM and a TGI (RXF 393 renal) of 16.5 µM. For the same compound, the TGI (SK-MEL-5 melanoma) was 19.6 µM, the TGI (NCI-H522 lung) was over 43.8 µM and the TGI (UACC-257 melanoma) was 16.8 µM. The TGI (A549 NSCLC) was 23.1 µM, the TGI (EKVX NSCLC) was 28.2 µM and the TGI (OVCAR-8 ovarian) was 21 µM. The TGI (OVCAR-5 ovarian) was 23.5 µM, the TGI (MALME-3M melanoma) was over 53.3 µM and the TGI (HCT-15 colon) was 24.3 µM. The TGI (RPMI-8226 leukemia) was 22.7 µM, the TGI (UO-31 renal) was 3.1 µM and the TGI (DU-145 prostate) was 22.9 µM. It also gave a TGI (SW-620 colon) of 37.3 µM, a TGI (CCRF-CEM leukemia) of 5.43 µM and a TGI (K-562 leukemia) of 15.3 µM. The TGI (SK-MEL-2 melanoma) was 33.1 µM, the TGI (BT-549 breast) was 23 µM and the TGI (T-47D breast) was 23.6 µM. The TGI (UACC-62 melanoma) was 27.4 µM, the TGI (SF-295 CNS) was 16.9 µM and the TGI (SK-OV-3 ovarian) was 28.4 µM. The TGI (SK-MEL-28 melanoma) was 26.9 µM, the TGI (PC-3 prostate) was 20.7 µM and the TGI (SN12C renal) was 21.7 µM. For the same compound, the TGI (M14 melanoma) was 23.9 µM, the TGI (OVCAR-3 ovarian) was 24.8 µM and the TGI (MOLT-4 leukemia) was 19.7 µM. For the same compound, the TGI (HCC-2998 colon) was 34.4 µM, the TGI (TK-10 renal) was 16 µM and the TGI (MDA-N) was 25.4 µM. The TGI (HCT-116 colon) was 14 µM, the TGI (OVCAR-4 ovarian) was 20.2 µM and the TGI (NCI-H23 lung) was 24.7 µM. It also gave a TGI (MCF7 breast) of 21.1 µM, a TGI (U251 CNS) of 24.1 µM and a TGI (NCI-H226 lung) of 36.7 µM. For the same compound, the TGI (A498 renal) was 21.1 µM, the TGI (ACHN renal) was 20 µM and the TGI (HOP-92 NSCLC) was 9.07 µM. It also gave a TGI (NCI/ADR-RES ovarian) of 23.3 µM, a TGI (HL-60(TB) leukemia) of 2.89 µM and a TGI (KM12 colon) of 25.6 µM. It also gave a TGI (SF-268 CNS) of over 53.6 µM, a TGI (MDA-MB-435) of 22.9 µM and a TGI (SR leukemia) of 15.3 µM. The TGI (MDA-MB-231 breast) was 18.9 µM, the TGI (HOP-62 NSCLC) was 23 µM and the TGI (CAKI-1 renal) was 26.9 µM. For the same compound, the TGI (LOX IMVI melanoma) was 21.7 µM, the TGI (HS 578T breast) was over 58.9 µM and the TGI (COLO 205 colon) was 16.2 µM. The TGI (SNB-19 CNS) was 28.3 µM, the TGI (786-0 renal) was 17 µM and the TGI (SF-539 CNS) was 22.5 µM. It also gave a TGI (HT29 colon) of 18.4 µM and a TGI (SNB-75 CNS) of 24.5 µM.
